Consider seven compounds from article PMC10906075 (2024).

For data set [1], the system named is FAM-labeled phenylalanine aptamer (DNA, aptamer) CTCTCGGGACGACGAGGCTGGATGCATTCGCCGGATGTTCGATGTCGTCCC
The data set is described as follows: strand-displacement fluorescence assay (FAM/dabcyl). Conditions: PBS (~150 mM salt), 2 mM MgCl2, dabcyl quencher strand GTCGTCCCGAGAG (S4) displaced, 50 nM aptamer, 150 nM quencher, ~40 min, ambient.

For data set [2], the system named is Phe peptide (Phe1) (designed). The experiment in a line: interface nanopore. The conditions noted are these: PBS, 1.5 V, 1.0 uN; thiol for surface coupling (end not stated); OWLS: 1x PBS; nanopore: PBS (~150 mM salt), 0.5-1.5 V; pH and temperature not given.
Data set [3] relates to Phe peptide (Phe1) (designed). The data set is described as follows: OWLS. Conditions: 1x PBS, thiol for surface coupling (end not stated), OWLS: 1x PBS, nanopore: PBS (~150 mM salt), 0.5-1.5 V, pH and temperature not given.

On to `NC(=O)[C@@H](N)Cc1ccccc1`, for which the binding result in data set [1] is “yes”.
Same read-out and setting: the entry for `N[C@@H](Cc1c[nH]c2ccccc12)C(=O)O` is “no”.
On the same count and under the same terms, next, `NCCc1ccccc1`: “weak”; `N[C@@H](Cc1ccccc1)C(=O)O`: “yes”.
Regarding “ATTGCTATTCACCGGCGCGGGGCTGGGGCATCGGTAAT [scrambled sequence]”, the binding signal (ms translocation time) in data set [2] was found to be 11. The binding signal (ng/cm2 adsorbed mass) in data set [3] (attributed to nonspecific electrostatic binding) was found to be 140.
`N[C@@H](Cc1ccc(O)cc1)C(=O)O`: the binding entry in data set [1] was “no”.
For “CGACGAGGCTGGATGCATTCGCCGGATGTTCGATGTCG [phenylalanine aptamer]”, the binding signal (ms translocation time) in data set [2] was 190. The binding signal (ng/cm2 adsorbed mass) in data set [3] (peptide retained after buffer rinse) was 198.
